Laboratory results: patent US5308605A, “Diagnosis of tumors with 5-radioiodo-2'-deoxyuridine” (priority 1992, dated 1994)
Read-outs that look alike come from different tables or passages of the source.

What was measured:
[1] = test system: transitional cell carcinoma of the bladder; assay: Planar scintigraphy of MNU-induced bladder cancer; assay type: in vivo, Fisher 344 rats; conditions: day 3, intravesical
Procedure: The carcinogen N-methyl-N-nitrosourea (MNU), known to induce transitional cell carcinoma of the bladder, was instilled directly into the bladder lumen of 4-to-5-week old female Fisher 344 rats (20 animals) via bladder catheterization using a 22-gauge angiocatheter (1.5 mg/0.15 ml saline intravesically, every other week for a total of 4 doses). The drinking water was supplemented with a combination of trimethoprim-sulfamethoxasole, neomycin sulfate and polymixin B. Twelve to sixteen weeks after the last MNU infusion, the bladder was catheterized and emptied and [^125 I/^131 I ]IUdR (6. 4 to 10. 9 MBq [^125 I]IUdR [172 to 294 μCi] and 10.7 MBq [^131 I ]IUdR [290 μCi]) was administered through the catheter in a 100- or 200- μl volume and left in place for 2 h. The bladder contents were then withdrawn and the bladder rinsed with normal saline (5×1-ml). Nontumor-bearing control rats (16 animals) were injected by the same route with identical amounts of [^125 I/^131 I]IUdR. The drinking water of all animals was supplemented with 0. 1% potassium iodide from 48 to 72 h prior to the administration of the radiopharmaceutical up to the time of sacrifice. The tumor-bearing rats and the non-tumor bearing control rats were divided into Group A consisting of 12 tumor-bearing and 12 control rats, and Group B consisting of 8 tumor-bearing and 4 control rats. […]

[2] = test system: murine ovarian tumor (MOT); assay: Antineoplastic effect (survival fraction, median survival) in mouse ascites tumor; assay type: in vivo, C3HeB/FeJ mice
From the text: 2. ^125 IUdR Is an Effective Antineoplastic Agent In A Mouse Ascites Tumor. The tumor used in these experiments is the same murine ovarian tumor described above. We have determined the median survival of mice after i.p. challenge with various tumor cell inocula.
The relatively long survival of tumor-bearing mice facilitates quantitative evaluation of tumor cell killing after treatment with ^125 IUdR and can be used to calculate a cellular survival fraction.

[3] = test system: transitional cell carcinoma of the bladder; assay type: in vivo, Fisher 344 rats
From the text: No carrier added [^125 I/^131 I] IUdR was synthesized as described previously, see U.S. Pat. No. 4,851,520 hereby incorporated by reference, and purified on a C18 reverse phase HPLC column. The radiochemical purity of the product was>99% as determined by TLC with specific activities of 81.40 TBq/mmol and 96.94 GBq/mmol for [^125 I] IUdR and [^131 I] IUdR, respectively.
The carcinogen N-methyl-N-nitrosourea (MNU), known to induce transitional cell carcinoma of the bladder, was instilled directly into the bladder lumen of 4-to-5-week old female Fisher 344 rats (20 animals) via bladder catheterization using a 22-gauge angiocatheter (1.5 mg/0.15 ml saline intravesically, every other week for a total of 4 doses). […]
The biodistribution studies were conducted at 48 hours and at 1 week after administration of radiolabeled IUdR in order to quantitate the in vivo distribution of the radiopharmaceutical in terms of percent injected dose per gram of tissue (%ID/g) and to derive tumor to normal tissue ratios. Various organs and tissues of interest were excised, rinsed, blotted dry, weighed, and their radioactive content was determined in a gamma counter along with that of urine, stomach contents, blood and bone marrow.

[4] = test system: DNA; assay: Microautoradiography of bladder, intestine and bone marrow; assay type: in vivo, Fisher 344 rats
Procedure: The carcinogen N-methyl-N-nitrosourea (MNU), known to induce transitional cell carcinoma of the bladder, was instilled directly into the bladder lumen of 4-to-5-week old female Fisher 344 rats (20 animals) via bladder catheterization using a 22-gauge angiocatheter (1.5 mg/0.15 ml saline intravesically, every other week for a total of 4 doses). The drinking water was supplemented with a combination of trimethoprim-sulfamethoxasole, neomycin sulfate and polymixin B. Twelve to sixteen weeks after the last MNU infusion, the bladder was catheterized and emptied and [^125 I/^131 I ]IUdR (6. 4 to 10. 9 MBq [^125 I]IUdR [172 to 294 μCi] and 10.7 MBq [^131 I ]IUdR [290 μCi]) was administered through the catheter in a 100- or 200- μl volume and left in place for 2 h. The bladder contents were then withdrawn and the bladder rinsed with normal saline (5×1-ml). Nontumor-bearing control rats (16 animals) were injected by the same route with identical amounts of [^125 I/^131 I]IUdR. The drinking water of all animals was supplemented with 0. 1% potassium iodide from 48 to 72 h prior to the administration of the radiopharmaceutical up to the time of sacrifice. The tumor-bearing rats and the non-tumor bearing control rats were divided into Group A consisting of 12 tumor-bearing and 12 control rats, and Group B consisting of 8 tumor-bearing and 4 control rats. Group A was sacrificed 48 hours after administration of the radiopharmaceutical while Group B was sacrificed one (1) week after administration of the radiopharmaceutical.
The specificity of targeting and the DNA-incorporation of [^125 I]IUdR were determined by microautoradiography. The distribution and frequency of grains were assessed over the entire section and compared to the histopathologic findings. At the time of the biodistribution studies, the small intestine and the large intestine were quickly frozen in isopentane and liquid nitrogen. Bone marrow smears were fixed in 100% methanol. After rinsing with normal saline, the bladder was fixed in situ with 10% buffered formaldehyde, excised, and subsequently embedded in paraffin. The tissues were then sectioned (5-7 μm thickness), fixed (except for the bladder sections already fixed in vivo) and processed for autoradiography as were the bone marrow smears.
The tissue sections and bone marrow slides were coated with NTB2 emulsion (Kodak) and stored desiccated at 4° C. in light-tight boxes. After various times of emulsion exposure (up to 7 months), the autoradiographic slides were developed for 3 min in D-19 developer (Kodak) and fixed for 5 min in D-11 fixer (Kodak). Finally, the tissue sections were washed in distilled water, stained with hematoxylin/eosin, dehydrated, cleared, and mounted in Permount. Bone marrow slides were stained with Giemsa stain. Tissue and bone marrow slides were then examined under light microscopy.

[5] = mouse; unincorporated IUdR; cited from earlier work
[6] = humans; unincorporated IUdR; cited from earlier work
[7] = test system: 9 L gliosarcoma; assay: Biodistribution 40 h after injection in brain tumor-bearing rats
[8] = test system: murine ovarian tumor (MOT); assay: Scintigraphic imaging of ovarian tumor-bearing mice; assay type: in vivo, C3HeB/FeJ mice; conditions: later than 1 h (2, 16, 24 hr); 300 μCi
[9] = test system: 9 L gliosarcoma; assay: Scintigraphic imaging of brain tumors after intratumor injection; conditions: control animals; images 12-38 h

O=c1[nH]c(=O)n([C@H]2C[C@H](O)[C@@H](CO)O2)cc1I [[^131 I]IUdR, 5-iodo-2'-deoxyuridine]
scintigraphic activity in normal animals [1]: virtual absence of activity in normal animals
scintigraphic activity in tumor-bearing animals [1]: only visible area of activity remaining in the tumor-bearing animals was over the region of the bladder
decrease in survival ([2]; equivalent doses, 131I label): does not result in any decrease in survival

O=c1[nH]c(=O)n([C@H]2C[C@H](O)[C@@H](CO)O2)cc1I [^125 IUdR, 5-iodo-2'-deoxyuridine]
tumor cell survival fraction (plateau) ([2]; seven consecutive injections): 10^-5
percent injected dose per gram of bladder, tumor-bearing vs control ([3]; 48 h): significant difference
permeation to the systemic circulation ([3]; rat, not told): very low
penetration into the bladder wall ([4]; animals with infection/inflammation): potential for radiolabeled IUdR to penetrate deep within the bladder wall
uptake in squamous metaplasia and bacteria ([4]; basal layer of squamous metaplasia, bacteria when active infection present): Uptake was also observed in the basal layer of squamous metaplasia and in bacteria when active infection was present
cell-associated silver grains in bone marrow smears ([4]; bone marrow): free of cell-associated silver grains
uptake in the urothelium of control animals ([4]; control animals): did not show uptake in the urothelium
autoradiographic uptake by the tumor ([4]; hyperplasia and papillary carcinoma stages): uptake of radiolabeled IUdR by the tumor at the early stage of tumor development, i.e. the hyperplasia stage, as well as in the later papillary carcinoma stage
silver grains in actively dividing normal epithelia ([4]; rat, in vivo): did not show the presence of silver grains
silver grains in normal urothelium ([4]; rat, in vivo): generally free of silver grains
DNA incorporation by abnormal urothelium vs normal ([4]; tumor-bearing animals): always significantly higher

O=c1[nH]c(=O)n([C@H]2C[C@H](O)[C@@H](CO)O2)cc1I [IUdR, 5-Iodo-2'-deoxyuridine]
half-life in circulation [5]: less than seven
half-life in circulation [6]: less than five

O=c1[nH]c(=O)n([C@H]2C[C@H](O)[C@@H](CO)O2)cc1I [^123 IUdR, 5-iodo-2'-deoxyuridine]
injected dose found in tumor ([7]; one animal, tumor occupied large portion of right brain specimen): 25 % of the injected dose
injected dose per gram, right brain (injected side), sham-operated ([7]; sham-operated controls, mean±SD): 0.09±0.02 %ID/g
injected dose per gram, right brain (injected side), tumor-bearing ([7]; tumor-bearing animals, mean±SD, P<0.05 vs sham): 0.36±0.14 %ID/g
focal area of abdominal activity, later time points [8]: persisted only in MOT-bearing mice while it cleared from the abdomen of animals without tumor
survival fraction of tumor cells as a function of dose ([2]; 5 i.p. injections, 4 h intervals): an exponential decrease is obtained similar to that observed with the ^125 IUdR data
median survival of tumor-bearing animals ([2]; 5 i.p. injections, 4 h intervals, 24 h post tumor inoculation): prolongs median survival of the tumor-bearing animals (FIG. 7 of the incorporated patent) in a dose-dependent fashion
clearance of activity from the head [9]: clearance of the activity from the head of all control animals by 12 h
